# Legend:
# [1] = Minimum HLB needed for cetosome formation; assay type: physicochemical; settings: surfactant HLB requirement to solubilize and stabilize within the cetosome
# Procedure: Core components are also chosen with melting points between 40° to 75° C. This allows for thermal dissociation into the oil phase and strong affinity re-association as the temperature is reduced.
# [2] = Pre-clinical pharmacokinetic feasibility study of oxybutynin cream on shaved rabbit backs; assay type: in vivo, rabbits
# Procedure: Two levels of oxybutynin hydrochloride for use in the study were incorporated into the composition matrix: 5 mg/gm and 0.5 mg/ml. Three rabbits were chosen for each dosing. Animal backs were shaved were shaved 24 hrs prior to application. One gram was applied to the shaved area and rubbed in. This was covered by non-absorbent dressing. One milliliter of blood was collected from a marginal ear vein at baseline, 15 minutes, 1 hr, 6 hrs, 12 hrs and 24 hrs following dosing. Heparin was used as anticoagulant. Extracted samples were analyzed using an LC/MS-MS spectrometer (API 3000) with diazepam as an internal standard. Mobile phase was a 50:40:10 mixture (methanol:acetonitrile: 10 mM ammonium formate). The column used was a Phenomenex, Luna C18, 150×4.6 mm, 5 micron. Temperature for analysis was 30° C. with a flow rate of 1.0 ml/min with splitter with detection using ESI positive ion. Both oxybutynin and N-desethyl-oxybutynin were analyzed. N-desethyl-oxybutynin (DES) is a metabolite of oxybutynin considered to be associated with adverse secondary side effects.
# [3] = rabbit, in vivo, topical or ocular, 5 mg
# [4] = Cream, 0.5 mg/ml, one gram topical, rabbit plasma, mean
Compound,MINIMUM HLB NEEDED FOR CETOSOME FORMATION [1],melting point [°C],also measured
CCCCCCCCCCCCCCCCO [Cetyl Alcohol],15.5,–,–
CCCCCCCCCCCCCCCCOC(=O)CCCCCCCCC [Cetyl Decanoate],10,40 to 44,–
CCCCCCCCCCCCCCCCOC(=O)CCCCCCCCCCC [Cetyl Laurate],10,43 to 45,–
CCCCCCCCCCCCCCCCOC(=O)CCCCCCCCCCCCC [Cetyl Myristate],10,45 to 48,–
CCCCCCCCCCCCCCCCOC(=O)CCCCCCC [Cetyl Octanoate],10,52 to 60,–
CCCCCCCC/C=C\CCCCCCCC(=O)OCCCCCCCCCCCCCCCC [Cetyl Oleate],10,58 to 60,–
CCCCCCCCCCCCCCCCOC(=O)CCCCCCCCCCCCCCC [Cetyl Palmitate],10,–,–
CCCCCC/C=C\CCCCCCCC(=O)OCCCCCCCCCCCCCCCC [Cetyl Palmitoleate],10,45 to 52,–
CCCCCCCCCCCCCCCCCC(=O)OCCCCCCCCCCCCCCCC [Cetyl Stearate],10,62 to 70,–
"CCNCC#CCOC(=O)C(O)(c1ccccc1)C1CCCCC1 (stereo not shown) [DES, N-desethyl-oxybutynin]",–,–,"detection of the metabolite in plasma during the 24 hour period ([2]; either level of dose application): not detectable; Tmax ([2]; rabbit, in vivo, topical or ocular): <0.5 h"
"CCN(CC)CC#CCOC(=O)C(O)(c1ccccc1)C1CCCCC1 (stereo not shown) [Oxybutynin, oxybutynin]",–,–,"AUC(0-t) [2, 3]: 22 ng·h/mL; Cmax [2, 3]: 9.33 ng/mL; Tmax [2, 3]: 6 h"
Cetyl Isomyristate,10,–,–
oxybutynin,–,–,"AUC 0-24 hr [2, 4]: 2.512 ng·h/mL; Cmax [2, 4]: 0.836 ng/mL; Tmax [2, 4]: 12 h"
